The record followed here is paper PMC6348381, “Discovery of an MLLT1/3 YEATS Domain Chemical Probe” (Angewandte Chemie (International Ed. in English), 2018).

What all share (assay type): binding
One experiment has as its target T1, BRD7 (Homo sapiens, UniProt Q9NPI1).
T1 construct: purchased in-house (SGC bromodomain thermal shift / AlphaScreen panel)
T1 sequence (Q9NPI1 1-651): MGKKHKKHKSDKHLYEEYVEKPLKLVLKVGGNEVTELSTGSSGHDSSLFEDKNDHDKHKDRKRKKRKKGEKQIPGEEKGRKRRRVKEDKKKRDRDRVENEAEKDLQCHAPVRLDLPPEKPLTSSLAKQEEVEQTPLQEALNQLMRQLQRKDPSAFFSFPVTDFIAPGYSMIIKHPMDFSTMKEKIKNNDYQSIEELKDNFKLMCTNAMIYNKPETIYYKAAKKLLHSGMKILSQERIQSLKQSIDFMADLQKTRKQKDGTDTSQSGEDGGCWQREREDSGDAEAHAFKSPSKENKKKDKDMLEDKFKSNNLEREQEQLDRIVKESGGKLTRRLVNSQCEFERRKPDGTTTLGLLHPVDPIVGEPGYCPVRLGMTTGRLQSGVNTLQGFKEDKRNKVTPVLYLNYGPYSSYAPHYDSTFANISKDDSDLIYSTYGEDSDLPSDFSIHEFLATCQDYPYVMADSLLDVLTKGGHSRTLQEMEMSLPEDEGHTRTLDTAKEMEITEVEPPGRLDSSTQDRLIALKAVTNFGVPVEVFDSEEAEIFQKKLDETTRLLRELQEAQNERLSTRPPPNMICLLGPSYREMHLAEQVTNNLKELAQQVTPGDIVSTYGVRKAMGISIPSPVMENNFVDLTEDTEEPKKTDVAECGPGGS
The experiment can be described thus: Thermal shift assay, BRD7. The protocol: (§1) II.VII Thermal Shift Assay[6]
(§2) Thermal melting experiments were carried out using an Mx3005p Real Time PCR machine (Stratagene). Proteins were buffered in 10 mM HEPES pH 7.5, 500 mM NaCl and assayed in a 96-well plate at a final concentration of 2 μM in 20 μL volume. Compounds were added at a final concentration of 50 μM. SYPRO Orange (Molecular Probes) was added as a fluorescence probe at a dilution of 1:1000. Excitation and emission filters for the SYPRO-Orange dye were set to 465 nm and 590 nm, respectively. The temperature was raised with a step of 3 °C per minute from 25 °C to 96 °C and fluorescence readings were taken at each interval. The unfolding curves were fitted using the Boltzmann equation to determine the middle point of the transition.

The target of the next experiment is T2, BAZ1B (Homo sapiens, UniProt Q9UIG0).
T2 construct: purchased in-house (SGC bromodomain thermal shift / AlphaScreen panel)
T2 sequence (Q9UIG0 1-1483): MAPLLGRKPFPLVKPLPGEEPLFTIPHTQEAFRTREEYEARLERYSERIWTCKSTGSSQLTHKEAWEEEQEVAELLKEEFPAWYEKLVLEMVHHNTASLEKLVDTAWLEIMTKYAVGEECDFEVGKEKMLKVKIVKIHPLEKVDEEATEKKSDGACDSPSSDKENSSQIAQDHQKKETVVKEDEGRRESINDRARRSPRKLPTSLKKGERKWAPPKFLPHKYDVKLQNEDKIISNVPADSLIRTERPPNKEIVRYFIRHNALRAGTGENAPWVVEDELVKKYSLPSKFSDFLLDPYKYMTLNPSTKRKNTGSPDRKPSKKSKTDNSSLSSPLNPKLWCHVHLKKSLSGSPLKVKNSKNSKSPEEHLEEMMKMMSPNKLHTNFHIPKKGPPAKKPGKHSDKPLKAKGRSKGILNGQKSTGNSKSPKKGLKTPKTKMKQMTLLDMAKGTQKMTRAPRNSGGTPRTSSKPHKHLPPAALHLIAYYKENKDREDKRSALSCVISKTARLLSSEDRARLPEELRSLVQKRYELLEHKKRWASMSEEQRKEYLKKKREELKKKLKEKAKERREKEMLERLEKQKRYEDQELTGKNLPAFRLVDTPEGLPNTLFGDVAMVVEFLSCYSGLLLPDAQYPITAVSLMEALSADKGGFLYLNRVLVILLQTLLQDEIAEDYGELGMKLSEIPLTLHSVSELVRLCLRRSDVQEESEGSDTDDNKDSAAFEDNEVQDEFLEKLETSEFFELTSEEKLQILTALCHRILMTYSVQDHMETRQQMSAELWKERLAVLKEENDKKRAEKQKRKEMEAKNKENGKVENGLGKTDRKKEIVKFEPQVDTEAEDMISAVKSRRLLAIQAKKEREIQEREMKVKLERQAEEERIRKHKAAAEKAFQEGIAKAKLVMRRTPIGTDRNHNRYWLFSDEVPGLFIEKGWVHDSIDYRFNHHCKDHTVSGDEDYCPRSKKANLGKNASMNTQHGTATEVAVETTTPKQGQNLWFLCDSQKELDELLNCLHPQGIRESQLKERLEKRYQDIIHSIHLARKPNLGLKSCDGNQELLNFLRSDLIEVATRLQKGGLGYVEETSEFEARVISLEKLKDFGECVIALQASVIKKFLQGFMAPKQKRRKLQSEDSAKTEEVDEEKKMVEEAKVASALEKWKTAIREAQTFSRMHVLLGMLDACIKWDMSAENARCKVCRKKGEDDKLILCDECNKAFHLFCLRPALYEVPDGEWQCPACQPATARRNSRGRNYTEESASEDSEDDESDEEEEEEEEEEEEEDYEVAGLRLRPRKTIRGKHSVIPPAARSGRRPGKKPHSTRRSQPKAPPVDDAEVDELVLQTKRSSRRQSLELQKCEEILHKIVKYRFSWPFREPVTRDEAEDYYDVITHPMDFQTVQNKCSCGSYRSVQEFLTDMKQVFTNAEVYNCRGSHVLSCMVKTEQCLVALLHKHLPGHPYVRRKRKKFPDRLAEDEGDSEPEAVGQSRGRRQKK
The experiment can be described thus: Thermal shift assay, BAZ1B. As to the method: as §1, §2

A further experiment has as its target T3, BRD2(1) (Homo sapiens, UniProt P25440).
T3 construct: BRD2(1); purchased in-house (SGC bromodomain thermal shift / AlphaScreen panel)
The experiment can be described thus: Thermal shift assay, BRD2(1).

The target in the next experiment is T4, BRD4(2) (Homo sapiens, UniProt O60885).
T4 construct: BRD4(2); purchased in-house (SGC bromodomain thermal shift / AlphaScreen panel)
The experiment can be described thus: Thermal shift assay, BRD4(2). As to the method:
as §1, §2

The target of a further experiment is T5, BAZ2B (Homo sapiens, UniProt Q9UIF8).
T5 construct: purchased in-house (SGC bromodomain thermal shift / AlphaScreen panel)
T5 sequence (Q9UIF8 whole entry): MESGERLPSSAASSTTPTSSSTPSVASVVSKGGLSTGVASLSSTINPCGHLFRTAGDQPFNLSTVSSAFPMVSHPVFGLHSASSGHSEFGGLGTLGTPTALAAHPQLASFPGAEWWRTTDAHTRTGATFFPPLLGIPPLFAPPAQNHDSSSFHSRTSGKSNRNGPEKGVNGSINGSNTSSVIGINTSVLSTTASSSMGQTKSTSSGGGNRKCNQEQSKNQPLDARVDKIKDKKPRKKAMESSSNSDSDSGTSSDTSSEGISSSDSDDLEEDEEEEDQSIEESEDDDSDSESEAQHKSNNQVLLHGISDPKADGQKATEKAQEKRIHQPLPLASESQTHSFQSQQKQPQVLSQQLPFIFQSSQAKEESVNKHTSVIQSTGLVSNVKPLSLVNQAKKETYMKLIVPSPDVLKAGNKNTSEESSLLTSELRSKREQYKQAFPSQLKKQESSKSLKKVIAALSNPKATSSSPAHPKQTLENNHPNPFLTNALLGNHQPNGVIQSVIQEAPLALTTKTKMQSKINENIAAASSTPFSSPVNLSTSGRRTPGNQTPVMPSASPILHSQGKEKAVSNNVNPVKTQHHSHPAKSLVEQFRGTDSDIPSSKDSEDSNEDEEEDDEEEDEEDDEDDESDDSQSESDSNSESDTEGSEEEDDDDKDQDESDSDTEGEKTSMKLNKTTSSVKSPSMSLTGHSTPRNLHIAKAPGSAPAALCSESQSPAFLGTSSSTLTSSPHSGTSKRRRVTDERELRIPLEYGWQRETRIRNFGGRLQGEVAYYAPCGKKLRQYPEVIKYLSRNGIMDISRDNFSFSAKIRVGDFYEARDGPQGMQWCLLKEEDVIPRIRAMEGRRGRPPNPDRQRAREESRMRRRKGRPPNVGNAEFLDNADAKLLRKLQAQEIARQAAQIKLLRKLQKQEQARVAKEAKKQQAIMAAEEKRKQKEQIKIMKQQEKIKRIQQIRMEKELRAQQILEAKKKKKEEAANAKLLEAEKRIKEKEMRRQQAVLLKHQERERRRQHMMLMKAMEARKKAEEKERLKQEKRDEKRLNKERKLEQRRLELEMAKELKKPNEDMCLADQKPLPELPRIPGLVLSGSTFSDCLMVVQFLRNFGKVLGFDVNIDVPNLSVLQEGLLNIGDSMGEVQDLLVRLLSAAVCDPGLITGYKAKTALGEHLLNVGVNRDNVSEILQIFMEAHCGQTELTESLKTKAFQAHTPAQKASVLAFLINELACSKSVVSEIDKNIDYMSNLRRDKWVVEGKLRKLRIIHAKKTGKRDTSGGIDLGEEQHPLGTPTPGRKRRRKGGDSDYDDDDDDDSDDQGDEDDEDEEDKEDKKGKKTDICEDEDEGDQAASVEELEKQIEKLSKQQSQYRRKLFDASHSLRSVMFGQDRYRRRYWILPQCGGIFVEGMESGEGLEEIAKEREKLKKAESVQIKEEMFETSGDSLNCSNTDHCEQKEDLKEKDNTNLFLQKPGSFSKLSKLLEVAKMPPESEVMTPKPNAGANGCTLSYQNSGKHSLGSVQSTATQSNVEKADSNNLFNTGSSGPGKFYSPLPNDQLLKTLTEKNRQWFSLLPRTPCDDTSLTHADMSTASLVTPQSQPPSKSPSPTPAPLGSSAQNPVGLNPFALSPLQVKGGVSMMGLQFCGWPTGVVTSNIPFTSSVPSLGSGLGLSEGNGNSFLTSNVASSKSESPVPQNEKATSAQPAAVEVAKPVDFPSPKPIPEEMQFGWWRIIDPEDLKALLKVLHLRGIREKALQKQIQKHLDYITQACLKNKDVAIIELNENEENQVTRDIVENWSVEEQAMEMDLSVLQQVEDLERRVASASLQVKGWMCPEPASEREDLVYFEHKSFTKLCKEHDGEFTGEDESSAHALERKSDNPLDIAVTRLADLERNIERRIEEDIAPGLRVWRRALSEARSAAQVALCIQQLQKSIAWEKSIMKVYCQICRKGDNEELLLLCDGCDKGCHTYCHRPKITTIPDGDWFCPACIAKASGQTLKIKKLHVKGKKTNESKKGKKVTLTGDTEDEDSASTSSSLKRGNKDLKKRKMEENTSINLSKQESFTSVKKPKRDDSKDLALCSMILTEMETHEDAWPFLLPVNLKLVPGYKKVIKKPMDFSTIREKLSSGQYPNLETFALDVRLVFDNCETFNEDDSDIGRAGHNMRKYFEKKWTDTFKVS
The experiment can be described thus: Thermal shift assay, BAZ2B. As to the method: as §1, §2

The next experiment addresses T6, MLL (Homo sapiens, UniProt Q03164).
T6 construct: purchased in-house (SGC bromodomain thermal shift / AlphaScreen panel)
The experiment can be described thus: Thermal shift assay, MLL.

For the next experiment, the target named is T7, TAF1(1) (Homo sapiens, UniProt P21675).
T7 construct: TAF1(1); purchased in-house (SGC bromodomain thermal shift / AlphaScreen panel)
T7 sequence (P21675 1397-1505 limits assumed): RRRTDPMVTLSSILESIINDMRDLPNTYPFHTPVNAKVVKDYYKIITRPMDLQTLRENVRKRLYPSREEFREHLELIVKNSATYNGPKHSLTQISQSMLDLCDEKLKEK
The experiment can be described thus: Thermal shift assay, TAF1(1). As to the method: as §1, §2

The next experiment deals with T8, BAZ1A (Homo sapiens, UniProt Q9NRL2).
T8 construct: purchased in-house (SGC bromodomain thermal shift / AlphaScreen panel)
T8 sequence (Q9NRL2 whole entry): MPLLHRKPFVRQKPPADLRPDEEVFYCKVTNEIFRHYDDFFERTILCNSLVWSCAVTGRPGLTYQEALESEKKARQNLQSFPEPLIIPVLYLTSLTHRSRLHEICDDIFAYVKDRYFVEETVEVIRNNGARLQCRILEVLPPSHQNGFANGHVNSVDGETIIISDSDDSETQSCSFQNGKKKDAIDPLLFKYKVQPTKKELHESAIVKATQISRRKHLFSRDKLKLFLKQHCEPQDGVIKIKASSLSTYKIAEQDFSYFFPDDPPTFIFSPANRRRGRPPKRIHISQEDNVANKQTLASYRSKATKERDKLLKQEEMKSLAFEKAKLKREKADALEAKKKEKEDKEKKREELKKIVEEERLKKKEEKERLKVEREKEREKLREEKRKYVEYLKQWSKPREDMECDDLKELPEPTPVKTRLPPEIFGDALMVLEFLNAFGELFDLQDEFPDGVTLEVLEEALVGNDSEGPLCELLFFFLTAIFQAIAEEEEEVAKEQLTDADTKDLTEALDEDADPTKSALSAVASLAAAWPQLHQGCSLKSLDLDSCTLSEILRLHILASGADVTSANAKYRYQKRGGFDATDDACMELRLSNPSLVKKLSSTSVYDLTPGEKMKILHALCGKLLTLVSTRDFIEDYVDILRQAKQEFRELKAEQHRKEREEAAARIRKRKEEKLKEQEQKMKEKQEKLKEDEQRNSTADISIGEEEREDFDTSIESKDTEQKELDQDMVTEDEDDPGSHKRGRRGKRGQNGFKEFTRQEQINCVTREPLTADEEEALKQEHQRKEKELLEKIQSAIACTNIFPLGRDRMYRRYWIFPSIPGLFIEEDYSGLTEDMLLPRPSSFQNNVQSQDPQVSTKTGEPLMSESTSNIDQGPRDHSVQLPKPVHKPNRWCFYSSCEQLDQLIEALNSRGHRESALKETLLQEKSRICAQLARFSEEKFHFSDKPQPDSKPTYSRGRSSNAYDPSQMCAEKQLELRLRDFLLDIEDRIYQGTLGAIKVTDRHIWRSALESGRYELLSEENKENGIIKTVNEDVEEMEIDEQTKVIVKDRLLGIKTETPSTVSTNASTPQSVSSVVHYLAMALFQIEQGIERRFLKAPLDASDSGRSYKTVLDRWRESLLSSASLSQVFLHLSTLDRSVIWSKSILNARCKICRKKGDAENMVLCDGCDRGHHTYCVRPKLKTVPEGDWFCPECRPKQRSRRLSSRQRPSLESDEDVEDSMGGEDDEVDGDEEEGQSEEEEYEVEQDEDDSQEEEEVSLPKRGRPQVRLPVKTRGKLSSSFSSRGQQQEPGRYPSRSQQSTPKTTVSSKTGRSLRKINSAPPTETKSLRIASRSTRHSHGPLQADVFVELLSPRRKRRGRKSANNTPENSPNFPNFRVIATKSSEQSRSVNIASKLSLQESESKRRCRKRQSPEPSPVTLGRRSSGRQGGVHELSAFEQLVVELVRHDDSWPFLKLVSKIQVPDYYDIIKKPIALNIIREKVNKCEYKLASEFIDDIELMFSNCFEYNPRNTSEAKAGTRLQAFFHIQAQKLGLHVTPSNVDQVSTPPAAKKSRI
The experiment can be described thus: Thermal shift assay, BAZ1A. The protocol: as §1, §2

T3 sequence (P25440 71-194 limits assumed): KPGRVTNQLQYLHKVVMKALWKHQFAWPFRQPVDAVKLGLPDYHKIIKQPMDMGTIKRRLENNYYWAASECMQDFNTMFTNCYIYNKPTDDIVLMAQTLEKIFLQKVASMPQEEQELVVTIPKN

For `CCOC(=O)Nc1cc(-c2ccc(C)c(NS(C)(=O)=O)c2)nn2c(C)nnc12` [Bromosporine, reference compound], at BRD7 (10 µM compound concentration), the “Thermal stabilisation, BRD7” value stood at 8.48. The “Thermal stabilisation, BAZ1B” value on BAZ1B (10 µM compound concentration) is -0.23. Moreover, on BRD2(1) (10 µM compound concentration), the “Thermal stabilisation, BRD2(1)” value was found to be 4.46. The “Thermal stabilisation, BRD4(2)” value on BRD4(2) (10 µM compound concentration) is listed as 6.575. Also, the “Thermal stabilisation, BAZ2B” value on BAZ2B (10 µM compound concentration) stood at 1.385. In addition, the “Thermal stabilisation, MLL” value at MLL (10 µM compound concentration) is recorded as 0.75. On TAF1(1) (10 µM compound concentration), the “Thermal stabilisation, TAF1(1)” value worked out at 0.805. Also, the “Thermal stabilisation, BAZ1A” value at BAZ1A (10 µM compound concentration) is reported as -0.77.
As to `COC(=O)c1ccc(C(=O)Nc2ccc3[nH]c(CN4CCCCC4)nc3c2)cc1` [Compound 1], the “Thermal stabilisation, BRD7” value on BRD7 (50 μM compound) worked out at 0.57. In addition, the “Thermal stabilisation, BAZ1B” value on BAZ1B (50 μM compound) is 1.03. The “Thermal stabilisation, BRD2(1)” value at BRD2(1) (50 μM compound) turned out to be 1.345. Besides, at BRD4(2) (50 μM compound), the “Thermal stabilisation, BRD4(2)” value is listed as 0.715. Also, the “Thermal stabilisation, BAZ2B” value on BAZ2B (50 μM compound) came to 0.57. On MLL (50 μM compound), the “Thermal stabilisation, MLL” value is -0.18. For the same compound, at TAF1(1) (50 μM compound), the “Thermal stabilisation, TAF1(1)” value was 0.005. In addition, at BAZ1A (50 μM compound), the “Thermal stabilisation, BAZ1A” value is 1.085.
For `C[C@H]1CCCN1Cc1nc2cc(NC(=O)c3ccc4c(cnn4C)c3)ccc2[nH]1` [Compound 92], the “Thermal stabilisation, BRD7” value at BRD7 (50 μM compound) is on record as -0.08. Also, the “Thermal stabilisation, BAZ1B” value on BAZ1B (50 μM compound) is reported as -0.19. Further, the “Thermal stabilisation, BRD2(1)” value on BRD2(1) (50 μM compound) is given as -0.28. Also, the “Thermal stabilisation, BRD4(2)” value on BRD4(2) (50 μM compound) stood at 0.1. Further, the “Thermal stabilisation, BAZ2B” value at BAZ2B (50 μM compound) is 0.155. Besides, the “Thermal stabilisation, MLL” value at MLL (50 μM compound) is -1.31. On TAF1(1) (50 μM compound), the “Thermal stabilisation, TAF1(1)” value was -0.15. Further, the “Thermal stabilisation, BAZ1A” value at BAZ1A (50 μM compound) is -0.26.
